Test system: not listed separately
Experiment: Photostabilization of brivudine by admixed substances (formulation not specified)
Assay type: physicochemical
Conditions: not given
Source text: DE 3136282 proposes to protect light-unstable drugs using substances with a similar absorption profile. The protective effect is supposed to depend on the similarity between the absorption spectra of the stabilizer and of the drug, that is, the larger is the overlapping between the two absorption spectra, the better is the photo-stabilization. According to DE3136282, the ICH (International Conference on Harmonisation) guideline CPMP/ICH/279/95 was followed to determine brivudine degradation. Several substances, including pharmaceutical excipients, colorants or photostable drugs were tested in admixture with brivudine.

| Compound | photostabilization of brivudine (in words) | degradation of brivudine (in words) |
| --- | --- | --- |
| O=C(c1ccc(O)cc1O)c1ccc(O)cc1O [2,2′,4,4′-tetrahydroxybenzophenon, 2,2′,4,4′-tetrahydroxy-benzophenone] | effectively stabilize |  |
| COc1cc(O)c(C(=O)c2cc(S(=O)(=O)[O-])c(OC)cc2O)cc1S(=O)(=O)[O-].[Na+].[Na+] [2,2′-dihydroxy-4,4′-dimethoxybenzophenone-5,5′-disodium sulfonate] | effectively stabilize |  |
| O=C(c1ccccc1)c1ccc(O)cc1O [2,4-dihydroxy benzophenone] | effectively stabilize |  |
| COc1ccc(C(=O)c2ccccc2O)c(O)c1 [Dioxybenzone] | effectively stabilize |  |
| COc1ccc(C(=O)c2ccccc2)c(O)c1 [Oxybenzone] | effectively stabilize |  |
| CCCCC(CC)COC(=O)c1ccc(N(C)C)cc1 (centres unmarked) [Padimate O] | No effects |  |
| COc1cc(O)c(C(=O)c2ccccc2)cc1S(=O)(=O)O [Sulisobenzone] | effectively stabilize |  |
| O=S(=O)([O-])c1ccc(N=Nc2ccc(O)cc2O)cc1.[Na+] [Tropaeolin 0, 2,4-dihydroxyazobenzol-4′-sulfonic acid sodium salt] | best recovery rates | nearly no degradation of brivudine was detectable |
| CCCCC(CC)COC(=O)c1ccc(Nc2nc(Nc3ccc(C(=O)OCC(CC)CCCC)cc3)nc(Nc3ccc(C(=O)OCC(CC)CCCC)cc3)n2)cc1 (centres unmarked) [Uvinul® T150, 2,4,6-trianilino-p-(carbo-2′-ethyl-hexyl-1′-oxi)-1,3,5-triazin] | No effects |  |
| O=C(O)CCCCC1CCSS1 (stereo not drawn) [alpha-liponic acid] | did not show any effect |  |
| COc1ccc(C(=O)CC(=O)c2ccc(C(C)(C)C)cc2)cc1 [avobenzone] | stabilize brivudine, although to a lesser extent |  |
| CC1=C(/C=C/C(C)=C/C=C/C(C)=C/C=C/C=C(C)/C=C/C=C(C)/C=C/C2=C(C)CCCC2(C)C)C(C)(C)CCC1 [beta carotene, beta-carotene] | remarkable photostabilization |  |
| N[C@@H](CS)C(=O)O [cystein] | did not show any effect |  |
| CC1CC(OC(=O)c2ccccc2O)CC(C)(C)C1 (centres unmarked) [homosalate] | No effects |  |
| Cc1ccc(/C=C2/C(=O)C3(C)CCC2C3(C)C)cc1 (centres unmarked) [methyl-benzylidene-camphor] | stabilize brivudine, although to a lesser extent |  |
| CCCCC(CC)COC(=O)C(C#N)=C(c1ccccc1)c1ccccc1 (centres unmarked) [octocrylene] | stabilize brivudine, although to a lesser extent |  |
| CCCCC(CC)COC(=O)C=Cc1ccc(OC)cc1 (centres unmarked) [octyl-methoxy-cinnamate] | stabilize brivudine, although to a lesser extent |  |

Same assay, conditions: substance in admixture with brivudine, UV irradiation

| Compound | photostabilization of brivudine (in words) |
| --- | --- |
| 4-Bis(polyethoxy)paraamino-benzoicacid-polyethoxy-ethylester [Uvinul ® P25] | No effects |
| COc1cc(C=O)ccc1O [Vanillin] | did not satisfactorily stabilize brivudine |
| Type I: 2-(1,3-Dioxo-2-indanyl)-chinolin-disulfonic acid, Disodium salt Type II: 2-(1,3-Dioxo-2-indanyl)-methylchinolin-disulfonic acid, Disodium salt [Quinoline Yellow] | did not satisfactorily stabilize brivudine |

Same assay, conditions: versus controls

| Compound | protection of brivudine from decomposition over the controls |
| --- | --- |
| O=S(=O)([O-])c1ccc2c(N=Nc3ccc(S(=O)(=O)[O-])c4ccccc34)c(O)c(S(=O)(=O)[O-])cc2c1.[Na+].[Na+].[Na+] [Food red 9, 3-Hydroxy-4-(4-sulfonato-1-naphtylazo)-naphthalin-2,7-disulfonic acid, Trisodium salt] | more than 30% |

Same assay, conditions: with respect to brivudine alone

| Compound | fold increase of brivudine photostabilization / recovery |
| --- | --- |
| 7-Hydroxy-8-(4-sulfonato-1-naphthylazo)-naphthalin-1,3-disulfonic acid, trisodium salt [Cochineal Red A] | more then threefold |

Test system: not given
Experiment: not given
Conditions: UV light; isomerization to Z-BVDU and other decomposition products; state of the art; cited from earlier work

| Compound | light stability of brivudine (in words) |
| --- | --- |
| O=c1[nH]c(=O)n([C@H]2C[C@H](O)[C@@H](CO)O2)cc1/C=C/Br [brivudine, (E)-5-(2-bromovinyl)-2′-deoxyuridine] | light-instability |

Test system: varicella-zoster virus (VZV)
Experiment: not given
Conditions: state of the art; cited from earlier work

| Compound | effectiveness against VZV (in words) |
| --- | --- |
| O=c1[nH]c(=O)n([C@H]2C[C@H](O)[C@@H](CO)O2)cc1/C=C/Br [brivudine, (E)-5-(2-bromovinyl)-2′-deoxyuridine] | very effective |

Test system: herpes simplex virus type 1 (HSV-1)
Experiment: not given
Conditions: state of the art; cited from earlier work

| Compound | effectiveness against HSV-1 (in words) |
| --- | --- |
| O=c1[nH]c(=O)n([C@H]2C[C@H](O)[C@@H](CO)O2)cc1/C=C/Br [brivudine, (E)-5-(2-bromovinyl)-2′-deoxyuridine] | very effective |

— patent US20040259835A1, “Stabilized brivudine topical formulations” (priority 2001, published 2004)
